The structures appear in SMILES notation. Values after ≈ are worked out from the molar mass of the structure shown. “Also recorded” adds a separate entry of the source. Where two headings read alike, the source gives them in different places. A value given as a limit tells only on which side of the number the result lay.

Results on five compounds are retold here after publication PMC12386351, “Monoterpene Indole Alkaloids with Antimicrobial Activity Against Helicobacter pylori” (International Journal of Molecular Sciences, 2025).

Data set [1] relates to H. pylori reference strain J99. Description: MIC and MBC by microdilution against H. pylori reference strain J99. In kind it is cell-based, Helicobacter pylori. The settings on record: for MBC: (-) = MBC not determined, as bacterial growth was observed at all tested concentrations (up to 20 µM). The procedure:
To evaluate the activity of the natural products library, in vitro assays were conducted to determine the MIC and MBC against the H. pylori reference strain J99. […] The microplates were then incubated at 37 °C in microaerophilic conditions for 48 h with agitation of 140 rpm. After incubation, the optical density was read at 600 nm (BioTek Epoch2, Agilent, Winooski, VT, USA). All assays were performed in duplicate. DMSO at a concentration of 1% (v/v) was included as a negative control to assess the baseline effect of the solvent, in which bacterial growth was expected, while kanamycin (Sigma-Aldrich, St. Louis, MO, USA) at a concentration of 8 µg/mL was used as a positive control to provide a benchmark for effective antibacterial activity. MIC values were defined as the lowest concentration of a compound that inhibited the growth of H. pylori. MBC values were determined by plating 5 µL aliquots of each dilution onto H. pylori-selective medium, followed by incubation as described above. MBC was defined as the lowest concentration of a compound that rendered no visible colony formation on the solid medium, indicating bactericidal activity.
In general terms: Dilution methods test growth across graded concentrations, often in twofold steps.

A further data set deals with VERO cells. Description: MTT cytotoxicity assay on VERO cells. The class given is cell-based. The conditions noted are these: 48 h, 10 to 80 µM, versus DMSO and untreated controls. The procedure:
(§1) The cytotoxicity of the compounds showing antibacterial activity was evaluated in VERO cell cultures (FTVE, Vircell, S.L., Granada, Spain) using the standard MTT colorimetric assay. Briefly, sub confluent cell cultures were exposed for 48 h, to 2-fold dilutions of each assayed compound, ranging from 80 to 10 µM, in 100 μL CO2-independent medium supplemented with 5% FBS and […] gentamicin (Gibco^TM, Grand Island, NY, USA) (CO2-ind-FBS5). In each assay, cells exposed to equivalent concentrations of DMSO as solvent and untreated cells were kept as controls; untreated cells were considered the baseline for 100% viability.
(§2) After 48-h incubation at 37 °C, the culture medium was replaced by fresh CO2-ind-FBS5 medium supplemented with 0.5 mg/mL MTT (Thermo Fisher Scientific, Waltham, MA, USA). Upon a 3-h incubation at 37 °C, the medium was carefully discarded, and the purple formazan crystals formed were dissolved in DMSO (100 μL/well) during a 15-min incubation with agitation at room temperature, followed by absorbance reading at 570 nm, with reference wavelength at 630 nm (BioTek Epoch2, Agilent, Winooski, VT, USA). Data analysis and visualization were performed using Excel (v.2408) and RStudio (v. 2024.04.2). When possible, the half maximal cytotoxic concentration (CC50) values were determined for each compound by fitting a dose–response three- or four-parameter log-logistic function to the triplicate experimental points using RStudio (v.2024.04.2).
(§3) The selectivity index (SI) is the ratio of the cytotoxic concentration for 50% of the cells (CC50) to the inhibitory concentration for 50% of the bacteria (IC50). Considering that IC50 values were not calculated, but are expectably lower than the MIC value, the SI was estimated by dividing the CC50 by the MIC. Therefore, this value is necessarily lower than the SI because the MIC, rather than the bacterial half-maximal inhibitory concentration (IC50), was used in the calculation. This approach allows for an estimation of the therapeutic potential of the compound by providing an indication of its selectivity for targeting bacterial cells over host cells, even though the MIC is used instead of the bacterial IC50.
(§4) To compare biofilm formation between groups (negative control, H. pylori J99, and compound treatments), one-way analysis of variance (ANOVA) was performed, followed by Tukey’s post-hoc test for multiple comparisons. Data analysis was conducted using Python 3.13.5. Similarly, for the cytotoxicity assay in VERO cells, ANOVA and Tukey’s post-hoc test were also used to compare groups at each tested concentration (ranging from 80 to 10 µM), with DMSO-treated and untreated cells as reference groups.

Data set [2] in a line: MTT cytotoxicity assay on VERO cells. In kind it is cell-based. The conditions noted are these: African green monkey, MTT, 80 to 10 µM. The procedure:
as §1, §2, §3, §4
In general terms: Tetrazolium assays rely on reduction of a dye to a coloured formazan, in cell work by metabolically active cells.

Where [3] appears, read: Helicobacter pylori, H. pylori J99, 48 h, 2-fold dilutions 20 to 0.625 µM.
Setting [4] is: Helicobacter pylori, H. pylori J99, after conversion from µM to µg/mL.
The mark [5] stands for this setting: Helicobacter pylori, H. pylori J99, read-out: MBC.

With `CCC1CN(C)C2Cc3c([nH]c4ccccc34)C(c3c(OC)ccc4c5c([nH]c34)C3(C(=O)OC)CC4CC(CC)C3N(CC5)C4CC(C)=O)CC1C2C(=O)OC` (centres unmarked) [Compound 7, Tabernaelegantinine A], the figures for the MIC in data set [1] (setting [3]) and in data set [1] (setting [4]) were 20 µM and 15.2 µg/mL, respectively. Further, the “Effect on cell viability (MTT)” value in the data set on VERO cells is listed as “only a slight decrease in cell viability; also recorded: significant effects only at 80 µM”. Besides, the CC50 (commonly the concentration that lowers cell viability or growth by half) at 48 h in data set [2] is more than 80 µM.

Take `CCC1CN(C)C2Cc3c([nH]c4ccccc34)C(=NN=Cc3c[nH]c4cc(Br)ccc34)CC1C2C(=O)OC` (centres unmarked) [Compound 6, Dregamine(6′bromo-3′indolylmethylene)hydrazone]: the figures for the MIC in data set [1] (setting [3]) and in data set [1] (setting [4]) were 10 µM and 5.75 µg/mL, respectively. Besides, the MBC in data set [1] (setting [5]) came out at 20 µM (≈ 11.5 µg/mL). Further, the “Effect on cell viability (MTT)” value in the data set with VERO cells is on record as “only a slight decrease in cell viability; also recorded: did not induce significant cytotoxicity at any tested concentration”. Moreover, the cytotoxic concentration (CC50) at 48 h in data set [2] is more than 80 µM.

Turning to `CCC1CN(C)C2Cc3c([nH]c4ccccc34)C(=NN=CC=Cc3ccccc3)CC1C2C(=O)OC` (centres unmarked) [Compound 3, Dregamine(phenylallylidene)hydrazone], the MBC was 20 (20) µM in data set [1] (H. pylori J99) and 20 µM (≈ 9.65 µg/mL) in data set [1] (setting [5]). Further, the MIC – broadly, the lowest concentration that inhibits growth of the organism – in data set [1] (setting [3]) was determined as 20 µM; in data set [1] (setting [4]), 9.65 µg/mL. Besides, it took 44.1 ± 2.4 µM to reach half-maximal cytotoxicity in data set [2] (CC50 at 48 h).

As for `CCC1CN(C)C2Cc3c([nH]c4ccccc34)C(=NN=Cc3ccccc3O)CC1C2C(=O)OC` (centres unmarked) [Compound 5, Dregamine(2′-hydroxybenzylidene)hydrazone], the values for the minimum inhibitory concentration (MIC) in data set [1] (setting [3]) and in data set [1] (setting [4]) were 20 µM and 9.45 µg/mL, respectively. The compound further yielded a CC50 at 48 h in data set [2] of 55.8 ± 4.5 µM.

Regarding `CCC1CN(C)C2Cc3c([nH]c4ccccc34)C(=NN=Cc3c[nH]c4ccccc34)CC1C2C(=O)OC` (centres unmarked) [Compound 4, Dregamine(indolylmethylene)hydrazone], the minimal inhibitory concentration (MIC) worked out at 10 µM in data set [1] (setting [3]) and 4.96 µg/mL in data set [1] (setting [4]). This compound came in with a CC50 at 48 h in data set [2] of 47 ± 2.2 µM.
